Consider two compounds from PMC8112869, “Therapeutic inhibition of keratinocyte TRPV3 sensory channel by local anesthetic dyclonine” (eLife, 2021).

Assay [1] has as its system T-Rex 293 cells expressing TRPV3 G573C. The experiment in a line: Cell death analysis by flow cytometry (propidium iodide), cells expressing G573C mutant. The class given is cell-based, Homo sapiens. The protocol: T-Rex 293 cells were grown in DMEM containing 4.5 mg/ml glucose, 10% (vol/vol) FBS, 50 units/ml penicillin, 50 μg/ml streptomycin, and blasticidin S (10 μg/ml), and were incubated at 37°C in a humidified incubator gassed with 5% CO2. Transfections were performed in wells of a 24-well plate using lipofectamine 2000 (Invitrogen). […] Expression of GFP fluorescence detected by an epifluorescence microscope was used as an indicator of gene expression. After treatments with the compounds for 12 hr, cells were collected, washed twice with PBS, resuspended, and then dyed with propidium iodide (PI, Thermo Fisher Scientific) in the dark according to the manufacturer’s instructions. The membrane integrity of the cells was assessed using a BD FACSCelesta flow cytometer equipped with BD Accuri C6 software (BD Biosciences, USA).

The target in assay [2] is T1, mouse TRPV3 (Mus musculus, UniProt Q8K424).
T1 sequence (Q8K424 1-791): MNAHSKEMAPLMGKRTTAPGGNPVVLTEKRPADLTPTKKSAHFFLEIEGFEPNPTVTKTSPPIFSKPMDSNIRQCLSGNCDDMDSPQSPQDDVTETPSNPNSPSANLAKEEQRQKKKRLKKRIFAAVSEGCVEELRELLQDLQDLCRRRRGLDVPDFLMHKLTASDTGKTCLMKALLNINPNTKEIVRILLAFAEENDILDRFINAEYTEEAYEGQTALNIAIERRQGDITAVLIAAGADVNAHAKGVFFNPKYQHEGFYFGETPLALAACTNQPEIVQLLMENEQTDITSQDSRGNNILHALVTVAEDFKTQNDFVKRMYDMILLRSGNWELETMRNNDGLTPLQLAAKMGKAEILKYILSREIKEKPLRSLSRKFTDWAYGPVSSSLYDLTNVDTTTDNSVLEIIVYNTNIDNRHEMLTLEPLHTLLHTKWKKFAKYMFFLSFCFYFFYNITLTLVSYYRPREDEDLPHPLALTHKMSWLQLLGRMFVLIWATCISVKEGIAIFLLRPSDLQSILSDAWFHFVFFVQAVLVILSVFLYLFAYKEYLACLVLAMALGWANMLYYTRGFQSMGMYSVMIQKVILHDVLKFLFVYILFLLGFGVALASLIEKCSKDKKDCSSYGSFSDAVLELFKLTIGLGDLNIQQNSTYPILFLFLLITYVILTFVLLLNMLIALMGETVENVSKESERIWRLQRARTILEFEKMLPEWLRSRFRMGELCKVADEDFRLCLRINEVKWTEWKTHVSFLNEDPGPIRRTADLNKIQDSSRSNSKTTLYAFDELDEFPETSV
The experiment in a line: Single-channel inside-out patch recording of TRPV3 from HEK 293T cells. The class given is cell-based. Also noted: expressed in transfected cells; host or cells: HEK 293T. From the text: Conventional whole-cell and excised patch-clamp recording methods were used. For the recombinant expressing system, green fluorescent EGFP was used as a surface marker for gene expression. Recording pipettes were pulled from borosilicate glass capillaries (World Precision Instruments) and fire-polished to a resistance between 2 and 4 MΩ when filled with internal solution containing (in mM) 140 CsCl, 2.0 MgCl2, 5 EGTA, and 10 HEPES, pH 7.4 (adjusted with CsOH). Bath solution contained (in mM): 140 NaCl, 5 KCl, 3 EGTA, and 10 HEPES, pH 7.4 adjusted with NaOH. For recordings in keratinocytes, the bath saline consisted of (in mM) 140 NaCl, 5 KCl, 2 MgCl2, 2 CaCl2, 10 glucoses, and 10 HEPES, pH 7.4 adjusted with NaOH, and the pipette solution contained (in mM) 140 CsCl, 5 EGTA, and 10 HEPES, pH 7.3 adjusted with CsOH. For single-channel recordings, the pipette solution and bath solution were symmetrical and contained (in mM) 140 NaCl, 5 KCl, 3 EGTA, and 10 HEPES, pH 7.4. Isolated cells were voltage clamped and held at –60 mV using an EPC10 amplifier with the Patchmaster software (HEKAElectronics, Lambrecht, Germany). For a subset of recordings, currents were amplified using an Axopatch 200B amplifier (Molecular Devices, Sunnyvale, CA) and recorded through a BNC-2090/MIO acquisition system (National Instruments, Austin, TX) using QStudio developed by Dr. Feng Qin at State University of New York at Buffalo. Whole-cell recordings were typically sampled at 5 kHz and filtered at 1 kHz, and single-channel recordings were sampled at 25 kHz and filtered at 10 kHz. The compensation of pipette series resistance and capacitance was compensated using the built-in circuitry of the amplifier (>80%) to reduce voltage errors. Exchange of external solution was performed using a gravity-driven local perfusion system. As determined by the conductance tests, the solution around a patch under study was fully controlled by the application of a flow rate of 100 μl/min or greater. Dyclonine hydrochloride, MTSET and carvacrol were purchased from MCE (MedChemExpress). Unless otherwise noted, all chemicals were purchased from Sigma (Millipore Sigma, St. Louis, MO). Water-insoluble reagents were dissolved in pure ethanol or DMSO to make a stock solution and diluted into the recording solution at the desired final concentrations before the experiment. […] In the scratching behavior experiments, carvacrol was first dissolved in 10% ethanol and then diluted in normal saline before administration. All experiments except those for heat activation were performed at room temperature (22–24℃).

Where [3] appears, read: dyclonine (50 μM) or 2-APB (30 μM) alone, averaged from seven experiments.

As for `CCCCOc1ccc(C(=O)CCN2CCCCC2)cc1` [dyclonine], the cell death ratio is 13.85% ± 2.49% in assay [1] (dyclonine (50 μM) added to 2-APB (30 μM), averaged) and 14.98% ± 4.40% in assay [1] (setting [3]). This compound also came in with a unitary conductance in assay [2] (10 μM 2-APB with 30 μM dyclonine) of 179.2 ± 5.5 pS. Moreover, the single-channel open probability in assay [2] (30 μM dyclonine with 10 μM 2-APB, +60 mV) is recorded as 0.12 ± 0.01; in assay [2] (30 μM dyclonine with 10 μM 2-APB, –60 mV), 0.08 ± 0.01.
For the compound `NCCOB(c1ccccc1)c1ccccc1` [2-APB, 2-aminoethoxydiphenyl borate], in assay [1] (setting [3]), the cell death ratio is listed as 47.91% ± 5.54%. This compound came in with a unitary conductance in assay [2] (10 μM 2-APB before dyclonine treatment) of 163.6 ± 6.4 pS. The single-channel open probability in assay [2] (10 μM 2-APB without dyclonine, +60 mV) turned out to be 0.82 ± 0.02; in assay [2] (10 μM 2-APB without dyclonine, –60 mV), 0.8 ± 0.02.
